Paper PMC11947619, “Molecular mechanism of Mad2 conformational conversion promoted by the Mad2‐interaction motif of Cdc20” (Protein Science : A Publication of the Protein Society, 2025)
Residues, ends and D or L forms follow the SMILES beside them.

Target: T1, O‐Mad2^R133A (Homo sapiens, UniProt Q13257, R133A)
T1 construct: unable to collect equivalent data for full‐length O‐Mad2^R133A; His6-DoubleStrep-TEV (N); made in house
Test: Time-resolved NMR: O-Mad2 to C-Mad2 conversion of O-Mad2^R133A with MIM peptides
Assay type: biochemical
Conditions: 100 μM O-Mad2^R133A, 25°C
Protocol: FIGURE 2 NMR fingerprinting of Mad2. (a) Structural orientations of Trp75 (on the αB helix) and Trp167 (on the “safety‐belt”) in Mad2 produce distinct indole NH resonances. […] NMR spectra for O‐Mad2^R133A and “empty” C‐Mad2^L13A/R133A and C‐Mad2^R133A:Cdc20^MIM‐111‐138 are from Fischer et al. ([2022]) (c) Mad2 conversion rates vary with different MIM peptides. Conversion was traced over 24 h at 25°C using the Trp75 and Trp167 side‐chain resonances as reporters. MIM peptides were added at two‐fold molar excess to Mad2 (100 μM). Each spectrum required 12 min of acquisition time, therefore the 15 min time‐points represent the earliest spectra in the time‐resolved series. The schematics show the conformation of Mad2 as indicated by the tryptophan side‐chain resonances. A black tick marks when conversion is considered complete. NMR data for O‐Mad2^R133A with and without Cdc20^MIM‐111‐138 shown are from Fischer et al. ([2022]). In the case of full‐length Cdc20, the MIM sequence is sequestered by an auto‐inhibitory intramolecular interaction within Cdc20 itself, which prevents it from being readily accessible for binding to C‐Mad2 (Piano et al., [2021]). Conversely, isolated MIM peptides lack this auto‐inhibitory mechanism, allowing them to bind directly to C‐Mad2 without obstruction.
To understand whether Mad2 conversion times are modulated by different C‐Mad2 ligands, we used time‐resolved NMR to determine the conversion time of 100 μM O‐Mad2^R133A at 25°C. The indole NH resonances of Trp75 and Trp167 were used as reporters (Figure 2b). […] In contrast, conversion took ~24 h in the absence of Cdc20^MIM‐111‐138 peptide (Fischer et al., [2022]) (Figures 2c and S4b). […] Other MIM peptides also accelerated the O‐Mad2 to C‐Mad2 conversion. […] In “empty” C‐Mad2, the β7/β8 hairpin is displaced to expose the β6 strand for pairing with the MIM peptide (Luo et al., [2004]) (Figure S3a).
Mad2 constructs were expressed in BL21 Star (DE3) cells (Thermo Fisher Scientific), co‐transformed with a pRARE plasmid (Merck). Uniformly labeled proteins were expressed in M9 minimal media (6 g/L Na2HPO4, 3 g/L KH2PO4, 0.5 g/L NaCl) supplemented with 1.7 g/L yeast nitrogen base without NH4Cl and amino acids (Sigma Y1251). 1 g/L ^15NH4Cl and 4 g/L glucose were supplemented for ^15N labeling. For ^13C/^15N double‐labeled samples, unlabeled glucose was replaced with 3 g/L ^13C‐glucose. Protein expression was induced with 0.4 mM IPTG at 16°C overnight. All samples were purified as previously described (Luo & Yu, [2005]; Mapelli et al., [2007]) and all O‐Mad2 variants were kept at 4°C during purification to prevent conversion to C‐Mad2. Prior to all NMR experiments, proteins were dialyzed into 20 mM HEPES, pH 7.0, 100 mM NaCl, 1 mM TCEP. ^13C/^15N‐labeled samples were used for backbone assignment, and all other experimental data were acquired on ^15N‐labeled samples. Proteins were kept on ice before NMR experiments to ensure all O‐Mad2 remained in the open state. For “bound” C‐Mad2, MIM peptides were added in 1:2 molar excess to ensure complete conversion.
All peptides were synthesized by Cambridge Research Biochemicals, UK. Peptides were dialyzed into 20 mM HEPES, pH 7.0, 100 mM NaCl, and 1 mM TCEP for NMR experiments. The sequences for the peptides used in this study are: Cdc20^MIM‐111‐138 ([…]), Cdc20^MIM‐123‐137 (FDVEEAKILRLSGKP), Cdc20^MIM‐123‐152 ([…]), Cdc20^MIM‐138‐152 (QNAPEGYQNRLKVLY), Mad1^MIM‐529‐550 ([…]), and MBP1^MIM (SWYSYPPPQRAV). […]

T1 sequence (Q13257 whole entry R133A): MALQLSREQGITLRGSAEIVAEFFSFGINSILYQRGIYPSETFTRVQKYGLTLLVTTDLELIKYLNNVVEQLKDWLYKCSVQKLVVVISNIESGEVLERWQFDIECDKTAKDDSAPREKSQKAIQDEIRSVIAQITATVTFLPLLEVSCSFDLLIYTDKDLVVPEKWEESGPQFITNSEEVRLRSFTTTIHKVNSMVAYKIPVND

CC[C@H](C)[C@H](NC(=O)[C@H](CCCCN)NC(=O)[C@H](C)NC(=O)[C@H](CCC(=O)O)NC(=O)[C@H](CCC(=O)O)NC(=O)[C@@H](NC(=O)[C@H](CC(=O)O)NC(=O)[C@@H](N)Cc1ccccc1)C(C)C)C(=O)N[C@@H](CC(C)C)C(=O)N[C@@H](CCCNC(=N)N)C(=O)N[C@@H](CC(C)C)C(=O)N[C@@H](CO)C(=O)NCC(=O)N[C@@H](CCCCN)C(=O)N1CCC[C@H]1C(=O)N[C@@H](CCC(N)=O)C(=O)N[C@@H](CC(N)=O)C(=O)N[C@@H](C)C(=O)N1CCC[C@H]1C(=O)N[C@@H](CCC(=O)O)C(=O)NCC(=O)N[C@@H](Cc1ccc(O)cc1)C(=O)N[C@@H](CCC(N)=O)C(=O)N[C@@H](CC(N)=O)C(=O)N[C@@H](CCCNC(=N)N)C(=O)N[C@@H](CC(C)C)C(=O)N[C@@H](CCCCN)C(=O)N[C@H](C(=O)N[C@@H](CC(C)C)C(=O)N[C@@H](Cc1ccc(O)cc1)C(=O)O)C(C)C [Cdc20^MIM‐123‐152] (H-FDVEEAKILRLSGKPQNAPEGYQNRLKVLY-OH; N-terminus and C-terminus assumed)
Mad2 conversion rate/efficiency, in words (time-resolved NMR, compared with other Cdc20^MIM peptides): more efficient at triggering Mad2 conversion

EHQKAWALNLNGFDVEEAKILRLSGKPQ [Cdc20^MIM‐111‐138, Cdc20^MIM peptide spanning Cdc20 residues 111–138]
acceleration of O-Mad2 to C-Mad2 conversion vs absence of MIM peptide (two-fold molar excess peptide, without peptide ~24 h): ~50 fold

QNAPEGYQNRLKVLY [Cdc20^MIM‐138‐152, peptide of Cdc20 residues 138–152]
induction of Mad2 conversion after two hours / binding, in words (time-resolved NMR, two hours): failed to induce Mad2 conversion after two hours, and therefore alone are insufficient to bind Mad2
